# Assay results: patent publication US9040501B2, “Compositions and methods for treating cancer” (Eisai Inc., priority 2009, dated 2015)
# Like-named read-outs stand apart in the source and are kept apart here. Marks after values point to notes of the source that are not given here.
# Key:
# [1] = Pharmacokinetics in mice after IV and PO administrations; type: in vivo, male BALB-c mice
# Experimental: […]. All doses were prepared in phosphate buffered saline (PBS) and were administered at a volume of 5 mL/kg. Five mice per group were used in these studies. Blood samples were taken serially from the tail vein of each mouse at predetermined timepoints. Blood samples from all mice in each group were pooled together prior to processing for plasma. The pooled blood samples were spun down within 30-60 minutes after withdrawal and the plasma was harvested and frozen for assay. After preparation and extraction the samples were assayed by LC/MS/MS.
# [2] = Stability in simulated gastric fluid at 37° C. (HPLC); type: physicochemical;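 on % ER-876400 (peak retention time: 1.46 min): percent of total sample signal attributed to the analyte peak at each sampling time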
# Text: […]. See Kararli, T. T. Comparison of the GI anatomy, physiology, and biochemistry of humans and commonly used laboratory animals. BioPharm & DrugDispos. 16:351-380, 1995, which is hereby wholly incorporated by reference. The gastric pH in fasted monkeys has been reported to have a similar range of 1-3. See Kondo, H. et al. Characteristics of the gastric pH profiles of unfed and fed cynomolgus monkeys as pharmaceutical product development subjects. BioPharm & DrugDispos. 24:45-51, 2003, which is hereby wholly incorporated by reference.
# Materials: Simulated gastric fluid (SGF) was prepared by mixing the following into 100 mL of HPLC grade (or purified) water: 200 mg of sodium chloride and 1.87 mL of a 37.52% HCl stock solution.
# The HPLC analyses were conducted using a Waters UPLC solvent delivery system with Corona CAD detection. The HPLC Column (Waters Atlantis HHS T3 2.1×100 mm, 1.8 um) was maintained at 40° C. and preequilibrated with a solution containing 98% water and 2% acetonitrile. The temperature controlled auto-sampler was maintained at 37° C. The flow rate for the Water/MeCN mobile phase was 0.65 mL/min, with a gradient following sample injection (5 μL) as follows: […]
# The Water/MeCN mobile phase was applied to the column with the above described flow rate and gradient and the HPLC chromatograms were collected. After 3.5 minutes, the column was reequilibrated with 98% water/2% MeCN for 1.5 minutes.
# CDA = CDA (Homo sapiens (Human), UniProt P32320); conditions: deamination by CDA; Chabot et al. 1983, Bouffard et al. 1993; cited from earlier work
# CDA, sequence (P32320 whole entry): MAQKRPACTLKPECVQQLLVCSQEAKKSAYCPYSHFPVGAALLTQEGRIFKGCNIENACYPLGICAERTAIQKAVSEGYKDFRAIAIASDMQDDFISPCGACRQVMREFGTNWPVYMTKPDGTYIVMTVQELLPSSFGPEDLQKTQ
# cytidine deaminase (CDA) = cytidine deaminase (CDA) (Homo sapiens (Human), UniProt P32320); experiment: Effect of ER-876437 on the half-life of decitabine in the presence of CDA in Tris-HCl buffer at 37° C.; type: biochemical; conditions: for half-life at 0.2 mM: pH 7.4, Estimated T1/2 of decitabine
# cytidine deaminase (CDA), sequence (P32320 whole entry): as above
# Experimental: The solvent delivery system employed an HPLC quaternary pump, low pressure mixing. An autosampler having a variable loop, 0.1 to 100 μL range and temperature controlled thermostat was used. […] Degassed HPLC grade water and degassed HPLC grade acetonitrile were used as solvents for the mobile phases. […] [table]
# murine lymphoma L1210 [3] = conditions: for Mean Survival (days) ± SD: twice a day (8 hours apart), 4 days
# Experimental: Or, a stock of L1210 ascites in BSA solution was diluted to 1×10^4 cells/0.1 ml for use in the study mice.
# (§1) The mice were prepared with intravenous (IV) injection of L1210 ascites (prepared as described above) one day prior to commencing the dosing. […] The total IV injection for all mice took about 50 minutes.
# All solutions were stored on ice while dosing. Mice were dosed (intraperitoneally (IP) or per os (orally, PO)) twice a day (8 hours apart) for 4 consecutive days.
# (§2) Dead mice were autopsied and observed for the presence of tumors in organs.
# murine lymphoma L1210 [4] = conditions: for Mean Liver wts (g) ± SD / Mean Spleen wts (g) ± SD: on autopsy; for % ILS (Increased Life Span): vs vehicle group
# Experimental: Preparation of L1210 Cells: L1210 ascitic cells were prepared by passaging them in mice at least three times as follows. Each CD2F1 female mouse was intraperitoneally (IP) injected with about 10^5 L1210 ascitic cells. After one week, the mouse was sacrificed (asphyxiation via CO2). The mouse was placed on its back, its belly surface was cleaned with alcohol wipes, and a small incision was made into the peritoneal cavity. […] Diluted ascites (diluted 1:10 again) were counted on a hematocytometer and the number of cells per mL was calculated. About 10^5 L1210 cells were used for a subsequent passage for another mouse passage. Or, a stock of L1210 ascites in BSA solution was diluted to 1×10^4 cells/0.1 ml for use in the study mice.
# as §1
# Decitabine was prepared fresh twice a day, just prior to dosing. All solutions were stored on ice while dosing. Mice were dosed (intraperitoneally (IP) or per os (orally, PO)) twice a day (8 hours apart) for 4 consecutive days.
# as §2
# Preparation of study mice with IV injection of L1210 ascites took about 60 minutes. […] All solutions were stored on ice while dosing. Mice were dosed (IP or PO) twice a day (7 or 8 hours apart) for 4 consecutive days.
# [5] = male, BALB-c, mouse, plasma, 10 mg/kg IV
# [6] = male, BALB-c, mouse, plasma, 10 mg/kg IV, read-out: Plasma concentrations
# [7] = male, BALB-c, mouse, plasma, 10 mg/kg PO, read-out: Plasma concentrations
# [8] = Veh/decitabine 0.1 mg/kg PO, on autopsy
# [9] = Veh/decitabine 0.1 mg/kg PO (7 hours apart)
# [10] = Veh/decitabine 0.1 mg/kg PO (8 hr.)
smiles,measurement,setting,value
"O=C1NCC=CCN1[C@@H]1O[C@H](CO)[C@@H](O)[C@H]1O [ER-876400, (Z)-3,4-dihydro-1-((2R,3R,4S,5R)-tetrahydro-3,4-dihydroxy-5-(hydroxymethyl)furan-2-yl)-1H-1,3-diazepin-2(7H)-one, reference compound]",AUC0-∞,[1]; 10 mg/kg IV,20999 ng·h/mL
same,AUC0-∞/D,[1]; 10 mg/kg IV,2100 ng · hr/mL/D
same,AUCExtrap,[1]; 10 mg/kg IV,10.3%
same,CL,[1]; 10 mg/kg IV,8 mL/min/kg
same,dose-normalized exposures (AUC0-∞),[1]; 10 mg/kg IV,2100 ng·h/mL per mg/kg
same,t1/2,[1]; 10 mg/kg IV,16.1 h
same,Plasma concentrations,"[1]; 10 mg/kg IV, 2 hr",1753 ^a ng/mL
same,AUC(0-t),[1]; 10 mg/kg PO,13160 ng·h/mL
same,AUC(0-inf),[1]; [5],21000 ng·h/mL
same,clearance,[1]; [5],8 mL/min/kg
same,half-life,[1]; [5],16.1 h
same,concentration at 0.167 hr,[1]; [6],19900 ng/mL
same,concentration at 0.5 hr,[1]; [6],10200 ng/mL
same,concentration at 1 hr,[1]; [6],4210 ng/mL
same,concentration at 4 hr,[1]; [6],495 ng/mL
same,concentration at 6 hr,[1]; [6],118 ng/mL
same,concentration at 8 hr,[1]; [6],59 ng/mL
same,concentration at 24 hr,[1]; [6],93 ng/mL
same,AUC(0-t),"[1]; male, BALB-c, mouse, plasma, 10 mg/kg IV, read-out: AUC0-t",18800 ng·h/mL
same,Vd,"[1]; male, BALB-c, mouse, plasma, 10 mg/kg IV, read-out: Vss",3.2 L/kg
same,Cmax,"[1]; male, BALB-c, mouse, plasma, 10 mg/kg PO",7860 ng/mL
same,bioavailability,"[1]; male, BALB-c, mouse, plasma, 10 mg/kg PO vs IV, calculated based on AUC0-t, read-out: F (bioavailability)",69.9%
same,concentration at 0.167 hr,[1]; [7],7100 ng/mL
same,concentration at 0.5 hr,[1]; [7],7860 ng/mL
same,concentration at 1 hr,[1]; [7],4660 ng/mL
same,concentration at 2 hr,"[1]; male, BALB-c, mouse, plasma, 10 mg/kg PO, 2 hr, read-out: Plasma concentrations",1750 ng/mL
same,concentration at 4 hr,[1]; [7],320 ng/mL
same,concentration at 6 hr,[1]; [7],87 ng/mL
same,concentration at 8 hr,[1]; [7],44 ng/mL
same,concentration at 24 hr,[1]; [7],264 ng/mL
same,AUC(0-t),"[1]; male, BALB-c, mouse, plasma, 10 mg/kg PO, read-out: AUC0-t",13200 ng·h/mL
same,% ER-876400 (peak retention time: 1.46 min),"[2]; SGF at 37° C., analysis time 0:00:30",19.59%
same,% ER-876400 (peak retention time: 1.46 min),"[2]; SGF at 37° C., analysis time 0:06:08",17.04%
same,% ER-876400 (peak retention time: 1.46 min),"[2]; SGF at 37° C., analysis time 0:11:45",16.72%
same,% ER-876400 (peak retention time: 1.46 min),"[2]; SGF at 37° C., analysis time 0:17:23",15.17%
same,% ER-876400 (peak retention time: 1.46 min),"[2]; SGF at 37° C., analysis time 0:23:01",14.20%
same,% ER-876400 (peak retention time: 1.46 min),"[2]; SGF at 37° C., analysis time 0:28:38",13.23%
same,% ER-876400 (peak retention time: 1.46 min),"[2]; SGF at 37° C., analysis time 0:34:16",12.51%
same,% ER-876400 (peak retention time: 1.46 min),"[2]; SGF at 37° C., analysis time 0:39:54",14.05%
same,% ER-876400 (peak retention time: 1.46 min),"[2]; SGF at 37° C., analysis time 0:45:33",11.42%
same,% ER-876400 (peak retention time: 1.46 min),"[2]; SGF at 37° C., analysis time 0:51:10",10.71%
same,% ER-876400 (peak retention time: 1.46 min),"[2]; SGF at 37° C., analysis time 0:56:48",8.87%
same,% ER-876400 (peak retention time: 1.46 min),"[2]; SGF at 37° C., analysis time 1:02:27",9.14%
same,% ER-876400 (peak retention time: 1.46 min),"[2]; SGF at 37° C., analysis time 1:08:07",8.81%
same,% ER-876400 (peak retention time: 1.46 min),"[2]; SGF at 37° C., analysis time 1:13:46",7.66%
same,% ER-876400 (peak retention time: 1.46 min),"[2]; SGF at 37° C., analysis time 1:19:23",4.05%
same,% ER-876400 (peak retention time: 1.46 min),"[2]; SGF at 37° C., analysis time 1:25:01",6.44%
same,% ER-876400 (peak retention time: 1.46 min),"[2]; SGF at 37° C., analysis time 1:30:38",5.92%
same,% ER-876400 (peak retention time: 1.46 min),"[2]; SGF at 37° C., analysis time 1:36:16",5.72%
same,% ER-876400 (peak retention time: 1.46 min),"[2]; SGF at 37° C., analysis time 1:41:53",5.69%
same,% ER-876400 (peak retention time: 1.46 min),"[2]; SGF at 37° C., analysis time 1:47:32",4.98%
same,% ER-876400 (peak retention time: 1.46 min),"[2]; SGF at 37° C., analysis time 1:53:10",4.51%
same,% ER-876400 (peak retention time: 1.46 min),"[2]; SGF at 37° C., analysis time 1:58:49",3.85%
same,% ER-876400 (peak retention time: 1.46 min),"[2]; SGF at 37° C., analysis time 2:04:28",3.59%
same,% ER-876400 (peak retention time: 1.46 min),"[2]; SGF at 37° C., analysis time 2:21:24",2.82%
same,% ER-876400 (peak retention time: 1.46 min),"[2]; SGF at 37° C., analysis time 2:49:37",1.52%
same,% ER-876400 (peak retention time: 1.46 min),"[2]; SGF at 37° C., analysis time 3:17:48",0.81%
same,% ER-876400 (peak retention time: 1.46 min),"[2]; SGF at 37° C., analysis time 3:23:28",0.62%
same,% ER-876400 (peak retention time: 1.46 min),"[2]; SGF at 37° C., analysis time 3:46:00",0.39%
same,% ER-876400 (peak retention time: 1.46 min),"[2]; SGF at 37° C., analysis time 3:51:38",0.25%
same,% ER-876400 (peak retention time: 1.46 min),"[2]; analysis time 0:00:00, initial sample in water",84.04%
same,time to degrade by 50%,[2]; simulated gastric fluid (pH 1.45) at 37° C.,less than 30 seconds
Nc1ccn([C@H]2C[C@H](O)[C@@H](CO)O2)c(=O)n1 [deoxycytidine],Km,CDA,19 ± 4 µM
"Nc1ncn([C@H]2C[C@H](O)[C@@H](CO)O2)c(=O)n1 [decitabine, 5-aza-2′-deoxycytidine]",Estimated T1/2 of decitabine,cytidine deaminase (CDA); Decitabine in Tris-HCl buffer at 37° C. (absence of CDA),9 h
same,Estimated T1/2 of decitabine,cytidine deaminase (CDA); Decitabine with CDA and ER-876437 in Tris-HCl buffer at 37° C.,9 h
same,half-life at 0.2 mM,"cytidine deaminase (CDA); Tris-HCl buffer, Decitabine in Tris-HCl buffer at 37° C. (absence of CDA)",9 h
same,half-life at 0.2 mM,"cytidine deaminase (CDA); cytidine deaminase (CDA) in Tris-HCl buffer, Decitabine with CDA and ER-876437 in Tris-HCl buffer at 37° C.",9 h
same,half-life at 0.2 mM,"cytidine deaminase (CDA); cytidine deaminase (CDA) in Tris-HCl buffer, Decitabine with CDA in Tris-HCl buffer at 37° C.",~0.383 h
same,Mean Survival (days) ± SD,murine lymphoma L1210 [3]; Veh/decitabine 0.1 mg/kg IP,13.4 ± 0.89 days
same,Mean Liver wts (g) ± SD,murine lymphoma L1210 [3]; [8],2.17 ± 0.1 g
same,Mean Spleen wts (g) ± SD,murine lymphoma L1210 [3]; [8],0.34 ± 0.04 g
same,Mean Survival (days) ± SD,murine lymphoma L1210 [3]; Veh/decitabine 0.1 mg/kg PO,11.2 ± 0.45 days
same,% ILS (Increased Life Span),"murine lymphoma L1210 [3]; Veh/decitabine 0.1 mg/kg PO, vs vehicle group",51.35%
same,difference in survival when dosed 7 or 8 hours apart,"murine lymphoma L1210 [4]; 0.1 mg/kg decitabine PO twice a day, 4 days",no difference in survival
same,Mean Survival (days) ± SD,"murine lymphoma L1210 [4]; Veh/decitabine 0.1 mg/kg IP, twice a day (7 hours apart), 4 days",13.6 ± 0.55 days
same,Mean Liver wts (g) ± SD,murine lymphoma L1210 [4]; [9],2.02 ± 0.31 g
same,Mean Spleen wts (g) ± SD,murine lymphoma L1210 [4]; [9],0.36 ± 0.11 g
same,% ILS (Increased Life Span),murine lymphoma L1210 [4]; [9],47.50%
same,Mean Liver wts (g) ± SD,murine lymphoma L1210 [4]; [10],1.81 ± 0.41 g
same,Mean Spleen wts (g) ± SD,murine lymphoma L1210 [4]; [10],0.33 ± 0.06 g
same,Mean Survival (days) ± SD,"murine lymphoma L1210 [4]; Veh/decitabine 0.1 mg/kg PO (8 hr.), twice a day (8 hours apart), 4 days",11.6 ± 0.55 days
same,% ILS (Increased Life Span),murine lymphoma L1210 [4]; [10],45.00%
same,Mean Survival (days) ± SD,"murine lymphoma L1210 [4]; Veh/decitabine 0.1 mg/kg PO, twice a day (7 hours apart), 4 days",11.8 ± 0.84 days
